# Earlier results as cited in patent US10683273B2, “Compounds as DNA probes, methods and applications thereof” (JAWAHARLAL NEHRU CENTRE FOR ADVANCED SCIENTIFIC RESEARCH, priority 2015, dated 2020).
# Experiments:
# [1] = literature values (footnotes a, b); cited from earlier work
# [2] = system: DNA; details: literature values (footnotes a, b); cited from earlier work
smiles,measurement,setting,value
"CN1C(=Cc2cc[n+](C)c3ccccc23)Sc2ccccc21 [Thiazole orange (TO), Thiazole orange]",Stokes shift in absence of DNA,[1],139 nm
same,Stokes shift in presence of DNA,[2],18 nm
CCCN(CCCN(C)C)c1cc(/C=C2/Sc3ccccc3N2C)c2ccccc2[n+]1-c1ccccc1 [SYBR Green 1],Stokes shift in absence of DNA,[1],36 nm
same,Stokes shift in presence of DNA,[2],26 nm
CN(C)CCCN(CCCN(C)C)c1cc(C=C2Sc3ccccc3N2C)c2ccccc2[n+]1-c1ccccc1 [Picogreen],Stokes shift in absence of DNA,[1],30 nm
same,Stokes shift in presence of DNA,[2],21 nm
"CN1C(=Cc2cc[n+](C)c3ccccc23)Oc2ccccc21 [Oxazole yellow (YO), Oxazole yellow]",Stokes shift in absence of DNA,[1],100 nm
same,Stokes shift in presence of DNA,[2],19 nm
CN1/C(=C/c2cc[n+](CCC[N+](C)(C)CCC[N+](C)(C)CCC[n+]3ccc(/C=C4/Oc5ccccc5N4C)c4ccccc43)c3ccccc23)Oc2ccccc21.[I-].[I-].[I-].[I-] [YOYO-1],Stokes shift in absence of DNA,[1],106 nm
same,Stokes shift in presence of DNA,[2],20 nm
CN1/C(=C/c2cc[n+](CCC[N+](C)(C)CCC[N+](C)(C)CCC[n+]3ccc(/C=C4\Sc5ccccc5N4C)c4ccccc43)c3ccccc23)Sc2ccccc21.[I-].[I-].[I-].[I-] [TOTO-1],Stokes shift in absence of DNA,[1],149 nm
same,Stokes shift in presence of DNA,[2],19 nm
